Experimental findings from patent US20080044436A1, “Method for Screening and Compositions for Treating Cancers” (priority 2004, published 2008) are described below.

Test [1] deals with p21 promoter. Kind of test: Luciferase reporter assay in T47-D cells, p21 promoter. The settings on record: 30 nM progesterone for 34 hours or TReP-132 expression vector. Type of test: cell-based, human. As for the experimental part:
(§1) FIGS. 14A and 14B: T47-D cells were cotransfected with reporter constructs containing the p21 (FIG. 14A) or p27 (FIG. 14B) promoter. Twelve hours post-transfection, the cells were incubated with 30 nM progesterone or ethanol for 34 hours. The cell lysates were then assayed for luciferase activity. Luciferase activity of the −93p21 Luc and −549p27 Luc constructs represent level 1. Arrows indicate transcription initiation sites.
(§2) The pGL2 and pGL3 reporter constructs (100 ng) were cotransfected with the indicated amounts of expression vectors and 10 ng of the control plasmid pRL.Null. The amount of plasmid was then normalized with the empty vector pcDNA3. After 12 hours of transfection, the medium was changed and cells were incubated for an additional 10 and 34 hours, respectively. During this period, T47-D cells were cultured in the presence and absence of progesterone (30 nM). The cells were then harvested and cell lysates (20 μl) were assayed for luciferase activity (Dual Luciférase™ Reporter Assay System, Promega, Madison, Wis., USA) in a Berthold LUMAT LB9501 luminometer. The transfections were performed in triplicate and each experiment was repeated at least three times.
A general note: Reporter assays use an easily measured gene product as a stand-in for the process of interest.

Test [2] has as its system p27 promoter. Kind of test: Luciferase reporter assay in T47-D cells, p27 promoter. Type of test: cell-based, human. The following applies: 30 nM progesterone for 34 hours or TReP-132 expression vector. As for the experimental part: as §1, §2

As for `CC(=O)[C@H]1CC[C@H]2[C@@H]3CCC4=CC(=O)CC[C@]4(C)[C@H]3CC[C@]12C` [progesterone, reference compound], the p21 promoter activation result in test [1] is reported as “activated the two promoters”. The p27 promoter activation result in test [2] is “activated the two promoters”.

B1: TReP-132: Transcriptional Regulating Protein of 132 kDa, polypeptide comprising SEQ ID NO: 2; here expressed in cells from vectors (protein)
chain: MGDQQLYKTNHVAHGSENLFYQQPPLGVHSGLNHNYGNAVTGGGMDAPQASPISPHFPQDTRDGLGLPVGSKNLGQMDTSRQGGWGSHAGPGNHVQLRGNLANSNMMWGAPAQAEPTDGYQYTYSQASEIRTQKLTSGVLHKLDSFTQVFANQNLRIQVNNMAQVLHTQSAVMDGAPDSALRQLLSQKPMEPPAPAIPSRYQQVPQQPHPGFTGGLSKPALQVGQHPTQGHLYYDYQQPLAQVPVQGGQPLQAPQMLSQHMQQMQQHQYYPPQQQQQAGQQRISMQEIQTQPQQIRPSQPQPPPQQQQPQQLQLQQRQGSMQIPQYYQPQPMMQHLQEQQQQQMHLQPPSYHRDPHQYTPEQAHTVQLIPLGSMSQYYYQEPQQPYSHPLYQQSHLSQHQQREDSQLKTYSSDRQAQAMLSSHGDLGPPDTGMGDPASSDLTRVSSTLPHRPLLSPSGIHLNNMGPQHQQLSPSAMWPQMHLPDGRAQPGSPESSGQPKGAFGEQFDAKNKLTCSICLKEFKNLPALNGHMRSHGGMRASPNLKQEEGEKVLPPQPQPPLPPPPPPPPPPQLPPEAESLTPMVMPVSVPVKLLPPKPSSQGFTNSTVAAPSARDKPASSMSDDEMPVLEIPRKHQPSVPKAEEPLKTVQEKKKFRHRPEPLFIPPPPSYNPNPAASYSGATLYQSQLRSPRVLGDHLLLDPTHELPPYTPPPMLSPVRQGSGLFSNVLISGHGPGAHPQLPLTPLTPTPRVLLCRSNSIDGSNVTVTPGPGEQTVDVEPRINIGLRFQAEIPELQDISALAQDTHKATLVWKPWPELENHDLQQRVENLLNLCCSSALPGGGTNSEFALHSLFEAKGDVMVALEMLLLRKPVRLKCHPLANYHYAGSDKWTSLERKLFNKALATYSKDFIFVQKMVKSKTVAQCVEYYYTWKKIMRLGRKHRTRLAEIIDDCVTSEEEEELEEEEEEDPEEDRKSTKEEESEVPKSPEPPPVPVLAPTEGPPLQALGQPSGSFICEMPNCGAVFSSRQALNGHARIHGGTNQVTKARGAIPSGKQKPGGTQSGYCSVKSSPSHSTTSGETDPTTIFPCKECGKVFFKIKSRNAHMKTHRQQEEQQRQKAQKAAFAAEMAATIERTTGPVGAPGLLPLDQLSLIKPIKDVDILDDDVVQQLGGVMEEAEVVDTDLLLDDQDSVLLQGDAEL
Take B1: the p21 promoter activation entry in test [1] is reported as “activated the two promoters”. Moreover, the p27 promoter activation result in test [2] is recorded as “activated the two promoters”.
